Values quoted from earlier work, collected in patent EP2243483A1, “Amlodipine salt compositions for topical application” (priority 2009, dated 2010).
Counter-ions that a name gives are not always drawn.

Columns and labels:
[1] = tablets
[2] = hypertensive patients
[3] = molecular target: 2D6 (Homo sapiens, UniProt P10635)
[4] = molecular target: T1, 2B6 (Homo sapiens, UniProt P20813)
T1 sequence (P20813 1-491): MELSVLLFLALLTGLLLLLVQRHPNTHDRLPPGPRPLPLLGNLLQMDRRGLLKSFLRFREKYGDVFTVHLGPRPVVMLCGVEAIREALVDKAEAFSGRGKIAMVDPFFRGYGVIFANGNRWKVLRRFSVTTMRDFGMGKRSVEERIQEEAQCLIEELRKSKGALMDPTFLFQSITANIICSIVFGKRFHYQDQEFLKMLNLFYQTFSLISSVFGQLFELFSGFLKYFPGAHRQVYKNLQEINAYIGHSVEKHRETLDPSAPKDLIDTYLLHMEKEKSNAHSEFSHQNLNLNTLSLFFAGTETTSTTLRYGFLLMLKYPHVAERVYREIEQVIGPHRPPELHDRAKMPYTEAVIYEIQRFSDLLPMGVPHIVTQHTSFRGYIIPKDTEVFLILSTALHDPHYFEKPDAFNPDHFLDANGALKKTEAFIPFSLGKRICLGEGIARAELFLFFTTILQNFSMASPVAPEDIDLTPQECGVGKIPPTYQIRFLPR

[5] = molecular target: T2, 2A6 (Homo sapiens, UniProt P11509)
T2 sequence (P11509 1-494): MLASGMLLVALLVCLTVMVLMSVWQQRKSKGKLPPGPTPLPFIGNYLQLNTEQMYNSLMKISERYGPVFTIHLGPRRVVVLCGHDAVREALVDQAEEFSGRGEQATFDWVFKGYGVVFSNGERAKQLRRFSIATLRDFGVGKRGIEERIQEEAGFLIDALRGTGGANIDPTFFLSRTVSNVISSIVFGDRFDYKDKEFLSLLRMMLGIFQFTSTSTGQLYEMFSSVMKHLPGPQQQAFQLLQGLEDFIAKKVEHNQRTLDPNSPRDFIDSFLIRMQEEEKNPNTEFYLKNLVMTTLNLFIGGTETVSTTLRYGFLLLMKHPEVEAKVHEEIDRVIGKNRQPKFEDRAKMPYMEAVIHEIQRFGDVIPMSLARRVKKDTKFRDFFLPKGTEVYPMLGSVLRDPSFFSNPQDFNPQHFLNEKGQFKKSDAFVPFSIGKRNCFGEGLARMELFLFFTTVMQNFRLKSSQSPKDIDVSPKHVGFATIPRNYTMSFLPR

[6] = molecular target: T3, CYP 1A2 isoenzyme (Homo sapiens, UniProt P05177)
T3 sequence (P05177 1-516): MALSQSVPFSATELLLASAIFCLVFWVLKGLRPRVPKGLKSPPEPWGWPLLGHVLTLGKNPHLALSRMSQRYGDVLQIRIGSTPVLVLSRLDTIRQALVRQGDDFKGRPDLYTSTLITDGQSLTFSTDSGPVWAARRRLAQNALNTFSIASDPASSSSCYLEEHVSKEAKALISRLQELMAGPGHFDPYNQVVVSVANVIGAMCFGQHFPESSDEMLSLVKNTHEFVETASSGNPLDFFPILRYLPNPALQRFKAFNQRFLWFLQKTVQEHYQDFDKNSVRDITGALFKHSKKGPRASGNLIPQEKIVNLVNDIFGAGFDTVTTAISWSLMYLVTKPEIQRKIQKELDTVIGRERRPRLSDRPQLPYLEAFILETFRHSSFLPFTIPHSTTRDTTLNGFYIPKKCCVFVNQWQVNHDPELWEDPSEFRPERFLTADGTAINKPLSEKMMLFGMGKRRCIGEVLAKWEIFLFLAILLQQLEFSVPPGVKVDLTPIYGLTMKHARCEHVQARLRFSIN

[7] = tested on: 2C8/9
[8] = molecular target: 3A4 (Homo sapiens, UniProt P08684)
Sequence of 3A4 (P08684 whole entry): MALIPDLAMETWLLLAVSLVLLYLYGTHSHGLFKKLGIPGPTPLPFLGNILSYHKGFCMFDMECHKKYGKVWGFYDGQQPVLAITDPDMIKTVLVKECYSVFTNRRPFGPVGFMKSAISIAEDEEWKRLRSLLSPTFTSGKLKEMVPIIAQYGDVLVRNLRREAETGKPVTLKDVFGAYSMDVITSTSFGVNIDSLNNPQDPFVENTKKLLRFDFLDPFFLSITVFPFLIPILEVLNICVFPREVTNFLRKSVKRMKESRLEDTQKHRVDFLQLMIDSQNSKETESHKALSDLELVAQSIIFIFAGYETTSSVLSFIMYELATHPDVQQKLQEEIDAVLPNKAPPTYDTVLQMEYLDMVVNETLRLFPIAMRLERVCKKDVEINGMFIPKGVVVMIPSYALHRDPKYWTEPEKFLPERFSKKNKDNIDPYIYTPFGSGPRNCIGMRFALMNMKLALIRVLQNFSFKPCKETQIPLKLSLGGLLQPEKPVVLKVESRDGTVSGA

Sequence of 2D6 (P10635 whole entry): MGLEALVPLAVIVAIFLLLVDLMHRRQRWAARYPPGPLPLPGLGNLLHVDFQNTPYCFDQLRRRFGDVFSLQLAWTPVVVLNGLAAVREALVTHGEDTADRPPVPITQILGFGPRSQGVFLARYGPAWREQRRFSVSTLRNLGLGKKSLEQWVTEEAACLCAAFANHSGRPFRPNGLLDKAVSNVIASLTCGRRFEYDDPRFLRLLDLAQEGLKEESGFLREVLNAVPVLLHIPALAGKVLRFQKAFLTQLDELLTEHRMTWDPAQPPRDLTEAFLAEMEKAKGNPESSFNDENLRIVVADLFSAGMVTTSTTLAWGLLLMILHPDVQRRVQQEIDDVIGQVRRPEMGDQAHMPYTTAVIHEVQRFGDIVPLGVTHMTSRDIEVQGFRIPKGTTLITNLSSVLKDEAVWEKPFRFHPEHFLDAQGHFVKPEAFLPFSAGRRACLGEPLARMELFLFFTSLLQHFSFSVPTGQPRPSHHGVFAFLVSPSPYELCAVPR

Row | SMILES | converted to inactive metabolites via hepatic metabolism (in vivo, po) | time of peak concentration (in vivo, po) | time required for therapeutic response, initially [1] | time required for therapeutic response, peak [1] | circulating drug bound to plasma protein [2] | parent compound excreted in the urine (in vivo, po) | metabolites excreted in the urine (urine, oral) | inhibition [3] | inhibition [4] | inhibition [5] | inhibition [6] | inhibition [7] | inhibition [8]
1 | CCOC(=O)C1=C(COCCN)NC(C)=C(C(=O)OC)C1c1ccccc1Cl (stereo not shown) [amlodipine maleate] | About 90% | 6 to 12 h | 7 days | about 14 days | Approximately 93% |  |  |  |  |  |  |  | 
2 | CCOC(=O)C1=C(COCCN)NC(C)=C(C(=O)OC)C1c1ccccc1Cl (stereo not shown) [amlodipine] |  |  |  |  |  | 10% | 60% | weaker inhibition | weaker inhibition | weaker inhibition | moderately inhibited | weaker inhibition | weaker inhibition
